Several values for one entry are separate records, joined by “and”; a condition that tells them apart may be missing. Equal values may be shown once.
Tests used:
R6/2 mice = experiment: Grip strength in R6/2 mice of Huntington's disease; type: in vivo; conditions: 33 mg/kg i.p. QD; versus vehicle treated R6/2 mice
Protocol: Methods ― Total of 20 female and male R6/2 mice and 10 female and male wild-type littermate control mice (WT) were used in the study. The mice were genotyped and the R6/2 mice were divided into different treatment groups based on their litter and baseline body weight. The treatment with Vehicle or Compound 22 (33 mg/kg; 5 ml/kg, i.p. QD) was started at 4 weeks of age after the baseline behavioral tests (Figure 6). Body weights were measured at 3 weeks of age and twice a week until the end of the study.
The experimental groups were: • Group 1) 10 wild-type mice (mixed gender) treated with Vehicle (5 ml/kg, i.p., QD) starting at 4 weeks of age • Group 2) 10 R6/2 mice (mixed gender) treated with Vehicle (5 ml/kg, i.p., QD) starting at 4 weeks of age • Group 3) 10 R6/2 mice (mixed gender) treated with Compound 22 (33 mg/kg; 5 ml/kg, i.p. QD) starting at 4 weeks of age
Compound Delivery and Dosing - Treatment with Compound 22 (33 mg/kg; 5 ml/kg, i.p. QD) or Vehicle was started at age week 4 and continued until the 12 weeks of age. […]
Mice were taken to the experimental room and, one at a time, were placed on the grip strength apparatus (San Diego Instruments, San Diego, USA) in such a way that the animal grabbed a small mesh grip with its forepaws. […] Five scores were recorded per animal in consecutive sequence, and the average of three best scores for each animal was used for the results. […]

STHdh 111/111 = experiment: Morphology of striatal cells expressing mutated huntingtin; type: cell-based, mouse; conditions: treated versus not treated STHdh 111/111
Htt Exon-1 Q46 = biological target: T1, Htt Exon-1 Q46 (Homo sapiens, UniProt P42858, INS38QQQQQQQQQQQQQQQQQQQQQQQQQ); experiment: Dynamic Light Scattering (DLS), induced aggregation; type: biochemical
T1 construct: Futher experiments were made with Htt Exon-1 Q16 and Q46
Protocol: (§1) Proteins were ultracentrifuged with 50,000 rpm (rounds per minute) for one hour at 2 °C. The supernatant was used for DLS measurements. DLS measurements were conducted with Malvern Zetasizer Nano (Malvern Panalytical Ltd, United Kingdom).
(§2) Futher experiments were made with Htt Exon-1 Q16 and Q46. Table 28 Size Distribution (Volume and Number) of Q16 under various conditions

Htt Exon-1 Q16 = Htt Exon-1 Q16 (Homo sapiens, UniProt P42858, DEL34-38); experiment: as above; type: biochemical
Protocol: as §1, §2

C. elegans = conditions: in vivo
Protocol: Background: First, acute toxicity assays were performed to test the toxicity of the compounds in adult worms by simulating the actual conditions of the lifespan assay. This accomplished two things. First, in the early stages it determines doses that are acutely toxic to adult worms. Second, over time the worms are scored to rule out doses that despite low initial toxicity, will likely have a negative impact on lifespan. Worms are plated on the exact media and sealed plates that will be used in the lifespan assay and then incubated at 25°C to provide a pilot lifespan that helps catch any other dosing and delivery pitfalls early. Adult worms were monitored in the days immediately following exposure for lethality or any other obvious defects.
Results: Worms were treated with either vehicle control or Compound 4 at concentrations of 50nM, 500nM, 5µM, 50µM, and 500µM. […] The exception is that the worms are incubated at 25°C instead of 20°C to accelerate the aging process. […] Worms were then scored periodically for early deaths. Worms treated with 5 µM Compound 4 or higher concentrations began to decline faster than vehicle control-treated worms. As these doses would be unlikely to increase lifespan in an actual lifespan assay, this placed the upper boundary of effective concentrations between 500 nM and 5 µM (Figure 52 (B)). […]

[1] = by intensity, equimolar Compound 4
[2] = by number, equimolar Compound 4
[3] = by volume, equimolar Compound 4

Sequence of Htt Exon-1 Q16 (P42858 with tags, fused parts or gaps DEL34-38): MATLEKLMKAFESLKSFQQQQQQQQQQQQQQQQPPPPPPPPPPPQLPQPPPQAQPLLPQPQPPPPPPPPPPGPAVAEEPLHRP
T1 sequence (P42858 with tags, fused parts or gaps with the stated changes): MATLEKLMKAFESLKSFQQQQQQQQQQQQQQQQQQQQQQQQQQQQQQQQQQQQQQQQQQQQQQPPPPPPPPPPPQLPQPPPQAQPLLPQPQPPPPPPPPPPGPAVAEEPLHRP

| SMILES | grip strength (R6/2 mice) | cell morphology (STHdh 111/111) | % Intensity, Peak 1 (Htt Exon-1 Q46; [1]) [%] | % Intensity, Peak 2 (Htt Exon-1 Q46; [1]) [%] | % Intensity, Peak 3 (Htt Exon-1 Q46; [1]) | Size, Peak 1 (Htt Exon-1 Q46; [1]) [nm] | Size, Peak 2 (Htt Exon-1 Q46; [1]) [nm] | Size, Peak 3 (Htt Exon-1 Q46; [1]) [nm] | assembly state of Q46 (Htt Exon-1 Q46; exposed to Compound 4) | % Number, Peak 1 (Htt Exon-1 Q16; [2]) [%] | Size, Peak 1 (Htt Exon-1 Q16; [2]) | % Volume, Peak 1 (Htt Exon-1 Q16; [3]) [%] | % Volume, Peak 2 (Htt Exon-1 Q16; [3]) [%] | Size, Peak 1 (Htt Exon-1 Q16; [3]) [nm] | Size, Peak 2 (Htt Exon-1 Q16; [3]) [nm] | assembly state of Q16 (Htt Exon-1 Q16; exposed to Compound 4) | concentration at which worms began to decline faster than vehicle control-treated worms (C. elegans) [µM] |
| --- | --- | --- | --- | --- | --- | --- | --- | --- | --- | --- | --- | --- | --- | --- | --- | --- | --- |
| Cc1[nH]c2ccc(C(=O)NCCN(C(C)C)C(C)C)cc2c1C [Compound 22] | no significant differences |  |  |  |  |  |  |  |  |  |  |  |  |  |  |  |  |
| CCc1c(C)[nH]c2ccc(C(=O)NCCN(CC)CC)cc12 [Compound 4, N-(2-(diethylamino)ethyl)-3-ethyl-2-methyl-1H-indole-5-carboxamide] |  | improved cell viability, dendrite outgrowth and increased cell size | 83.1 | 12.9 | 4,1% | 178.7 | 9.275 | 3917 | assembles as mostly aggregates and larger aggregates | 100 | 6.0 nm and 6.063 nm | 0.2 | 99.8 | 93.12 | 6.949 | mainly monomeric | ≥ 5 |

— patent publication EP4140481A1, “PROTEIN-OLIGOMER BINDING AGENTS AND THERAPEUTIC USES THEREOF” (Galyan Bio, Inc., priority 2021, dated 2023)
